Results on six compounds are retold here after patent publication US20250177329A1, “GPR120 AGONISTS FOR THE TREATMENT OF INFLAMMATORY BOWEL DISEASE” (Dompe' Farmaceutici SPA, priority 2022, published 2025).

Data set [1] is described as follows: Plasma pharmacokinetics after single oral administration to mice. In kind it is in vivo. Particulars: male, CD1, mouse, single oral dose (Dose_PO: 10.0-90.0 mg/kg). The source says:
The purpose of this study was to evaluate plasma and tissue exposure of the following compounds after a single oral administration to mice: • 7-(3-(N-(4-fluoro-2,6-dimethylphenyl)sulfamoyl)phenyl)heptanoic acid (indicated below as DFL23806), • 7-(3-(N-(4-chloro-2,6-dimethylphenyl)sulfamoyl)phenyl)heptanoic acid (indicated below as DFL23914) • 7-(3-(N-(2,6-dimethyl-4-(trifluoromethyl)phenyl)sulfamoyl)phenyl)heptanoic acid (indicated below as DFL23922) • 7-(3-(N-(6-fluoro-4-methyl-[1,1′-biphenyl]-3-yl)sulfamoyl)phenyl)heptanoic acid (indicated below as DFL23916) • 7-(3-(N-(5-fluoro-3-methyl-[1,1′-biphenyl]-2-yl)sulfamoyl)phenyl)heptanoic acid (indicated below as DFL23917) • 7-(3-{[4-fluoro-2-methyl-5-(thiophen-2-yl)phenyl]sulfamoyl}phenyl)heptanoic acid (indicated below as DFL24102) […]
A retro-orbital, composite blood sampling at pre-dose or after dosing at 30 min, 1, 2, 6, 8 and 24 hours (three mice/time point) was carried out for the plasma pharmacokinetic assessment. Blood samples were collected in heparinized collection tubes. Samples were taken immediately onto ice and kept cool until centrifugation (10000 g for 3 minutes at about +4° C.). About 50 μL of plasma were stored in a freezer at −80° C. pending analysis.
After samples collection, bioanalysis for concentrations of the test compounds were done using HPLC-MS/MS methods and pharmacokinetic analysis of the compounds in plasma and tissues was performed according to standard non-compartmental approach using Watson system (v 7.6, Thermo Fisher Scientific Waltham, MA, USA) on mean concentration data.

The target of data set [2] is T1, GPR40 (Mus musculus, UniProt Q76JU9).
T1 construct: Colon lysates (˜900 μg proteins) from 6 mice of each experimental group were pooled; from tissue; host or cells: mouse colon (DSS colitis model)
T1 sequence (Q76JU9 whole entry): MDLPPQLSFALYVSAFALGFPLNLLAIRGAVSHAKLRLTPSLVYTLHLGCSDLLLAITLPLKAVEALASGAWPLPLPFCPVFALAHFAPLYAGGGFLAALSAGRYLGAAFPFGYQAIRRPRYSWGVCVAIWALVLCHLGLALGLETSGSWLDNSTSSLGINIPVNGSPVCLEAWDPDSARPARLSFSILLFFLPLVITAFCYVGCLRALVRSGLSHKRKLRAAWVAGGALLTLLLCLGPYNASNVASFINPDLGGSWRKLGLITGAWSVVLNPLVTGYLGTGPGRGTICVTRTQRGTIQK
As to the kind of experiment: Co-immunoprecipitation of β-arrestin 2 with GPR40 in colon lysates of DSS mice. In kind it is in vivo. Particulars: pooled colon lysates, day 39; compared to DSS or DSS+vehicle. On the procedure: The efficiency of DFL in activating the GPR120 and/or GPR40 receptors was tested.
Agonist-induced GPR120 can engage multiple signalling pathways to regulate distinct physiological outcomes. After ligand binding, B-arrestins, such as B-arrestin 2 can associate with the cytoplasmic domains of GPR120 and couple the receptor to specific downstream signaling pathways (FIG. 9). For this reason, we verified the agonist efficiency in activating GPR120 and GPR40 by immunoprecipitation. Colon lysates (˜900 μg proteins) from 6 mice of each experimental group were pooled, precleared with protein A/G plus-agarose (Santa Cruz) and then incubated with the antibody used for immunoprecipitation (anti-GPR120 or anti-GPR40, Abcam) at 4° C. for 16 h, followed by incubation with protein A/G plus-agarose for 5 h. The agarose beads were then collected by centrifugation, washed four times with lysis buffer, and heated to 95° C. for 5 min after adding Laemmli buffer. The resulting immunoprecipitates were separated by SDS-PAGE and probed with the anti-β-arrestin 2 antibody (Santa Cruz).
Upon western blotting, a densitometric analysis of the blots was performed using Image J. FIGS. 10 and 11 show the ratio between co-immunoprecipitated β-arrestin 2 and GPR120 (FIG. 10) or GPR40 levels (FIG. 11) and the results of the blotting.

Data set [3] relates to DSS-induced colitis. As to the kind of experiment: Mouse model of Dextran Sodium Sulfate-induced colitis. In kind it is in vivo, female C57/B16 mice. The following applies: day 39. The source says: A mouse model of colitis induced by administration of Dextran Sodium Sulfate (DSS) (Wirtz S. et al. Nature Protocols; Volume: 2, Issue: 3 Pages: 541-546; 2007) was used to study the therapeutic effect of oral administration of DFL23806 on colitis.
In details, 8- to 12-week-old female C57/B16 mice were subjected to 3 oral cycles of 2.5% Dextran Sodium Sulfate (DSS) in drinking water (molecular mass, 40 kDa; MP Biomedicals), each cycle characterized by 7 days of DSS administration followed by 7 days of filter-purified water.
From day 3 of DSS administration, the mice were divided in 4 experimental groups, each receiving the treatment specified below: • Group 1: DSS (n=8)
No treatment, used as negative control. • Group 2: DSS+Vehicle (n=8)
Treated with 20% v/v Dimethyl Sulfoxide (DMSO) and 80% v/v Phosphate Buffered Saline (PBS), 0.1 M, pH 8 (Vehicle), used as a negative control. • Group 3: DSS+DFL 90 mg/kg (n=8)
Treated with DFL23806 dissolved in Vehicle, at the dosage of 90 mg/kg once a day. • Group 4: DSS+5-ASA 60 mg/kg (n=8)
Treated with 5-aminosalicylic acid (5-ASA) in Vehicle, at the dosage of 60 mg/Kg once a day, used as reference positive control.
Vehicle, DFL23806 and 5-ASA were administered daily, in the morning, by oral gavage, using plastic sterile feeding tubes 20 ga×30 mm. All mice were sacrificed on day 39.
A DAI score was established based on a scale that considers different parameters characterizing experimental colitis induction and progression (R S Walmsley et al. Gut 1998; 43:29-32).
Body weight, presence of gross blood in the feces, and stool consistency were recorded every 2 days. In details, the DAI was determined at each time point by scoring changes in weight loss (0=none, 1=1%-5%, 2=5%-10%, 3=10%-20%, 4=>20%); stool consistency (0=normal, 2=loose, 4=diarrhea); and rectal bleeding (0=normal, 2=occult bleeding, 4=gross bleeding).
Mice were sacrificed at day 39, colon were collected and colon lengths measured for each mouse, as additional parameter of intestinal inflammation.
The day of sacrifice (day 39), mice were anesthetized with 2% isoflurane and subjected to endoscopy, to confirm the inflammatory grade. The experimental endoscopy setup, denoted “Coloview system”, consisted of a miniature endoscope (scope 1.9 mm outer diameter), a xenon light source, a triple chip camera, and an air pump (all from Karl Storz, Tuttlingen, Germany) to achieve regulated inflation of the mouse colon. The endoscopic procedure was viewed on a colour monitor and a modified murine endoscopic index score of colitis severity was assigned on the basis of colon translucency (0-3 points), granular features of the mucosa (0-3 points), morphology of the vascular pattern (0-4 points), and the presence of fibrin (0-4 points), as previously described by Dr. D'Alessio (D'Alessio, S. et al. J. Clin. Invest. 124, 3863-3878; 2014) leading to a cumulative score between 0 (no signs of inflammation) and […] (endoscopic signs of very severe inflammation).
Histological analysis has been performed by an expert pathologist, in a blinded fashion, to grade the intestinal inflammation. More in details, colons of colitic mice in the various experimental groups have been evaluated for histological analyses using […] paraffin-embedded sections, stained with hematoxylin (Dako) and eosin (Diapath). A blinded pathologist evaluated the degree of inflammatory cell infiltration and mucosal damage, using the RACHMILEWITZ score (Table 1) (Rachmilewitz, D. et al. Gastroenterology 122, 1428-1441; 2002).

Setting [4] is: colon, DFL 90 mg/kg, 5-ASA 60 mg/kg, compared with DSS+Vehicle.
Setting [5] is: DFL23806 90 mg/kg, 5-ASA 60 mg/kg oral once a day, compared to DSS and DSS+Vehicle.

For orientation: AUC(0-inf) means total exposure, with the tail of the curve extrapolated. For orientation: AUC(0-t) means exposure summed from dosing to a finite time, without extrapolation to infinity. A lower AUC(0-t) goes with low exposure. What is called Cmax is the peak of the concentration-time curve. One may read the Tmax as the time from dosing to the highest level. In general, half-life refers to how long it takes for the measured level to halve. For the compound `Cc1cc(Cl)cc(C)c1NS(=O)(=O)c1cccc(CCCCCCC(=O)O)c1` [DFL23914, 7-(3-(N-(4-chloro-2,6-dimethylphenyl)sulfamoyl)phenyl)heptanoic acid], in data set [1], the area under the curve AUC(0-inf) is 230 ng·h/mL, the AUC(0-t) stood at 189 ng·h/mL, the Cmax turned out to be 45 ng/mL and the Tmax stood at 2 h. The compound also had a half-life in data set [1] of 1.2 h.

Consider `Cc1cc(F)cc(-c2ccccc2)c1NS(=O)(=O)c1cccc(CCCCCCC(=O)O)c1` [DFL23917, 7-(3-(N-(5-fluoro-3-methyl-[1,1′-biphenyl]-2-yl)sulfamoyl)phenyl)heptanoic acid], for which, in data set [1], the AUC(0-inf) is 402 ng·h/mL, the AUC(0-t) was found to be 378 ng·h/mL, the Cmax is 135 ng/mL and the Tmax was 0.5 h. Further, the half-life in data set [1] was 1.3 h.

For `Cc1cc(F)c(-c2ccccc2)cc1NS(=O)(=O)c1cccc(CCCCCCC(=O)O)c1` [DFL23916, 7-(3-(N-(6-fluoro-4-methyl-[1,1′-biphenyl]-3-yl)sulfamoyl)phenyl)heptanoic acid], in data set [1], the AUC(0-inf) is 571 ng·h/mL, the AUC(0-t) was 480 ng·h/mL, the concentration peaked (Cmax) at 198 ng/mL and the Tmax is 0.4 h. Also, the half-life in data set [1] was 2.2 h.

On to `Cc1cc(C(F)(F)F)cc(C)c1NS(=O)(=O)c1cccc(CCCCCCC(=O)O)c1` [DFL23922, 7-(3-(N-(2,6-dimethyl-4-(trifluoromethyl)phenyl)sulfamoyl)phenyl)heptanoic acid], for which, in data set [1], the AUC(0-inf) was determined as 217 ng·h/mL, the AUC(0-t) came out at 201 ng·h/mL, the Cmax came to 123 ng/mL and the Tmax stood at 1.4 h. The compound also gave a half-life in data set [1] of 1.5 h.

With `Nc1ccc(O)c(C(=O)O)c1` [5-ASA, 5-aminosalicylic acid, reference compound], in data set [2], the “GPR40 and β-arrestin 2 association (ratio co-immunoprecipitated β-arrestin 2 / GPR40)” value was “no increase”. In addition, in data set [3] (setting [4]), the “histological score (Rachmilewitz) for extent of flogosis” value is “significantly reduced the histological score”, the “histological score (Rachmilewitz) for extent of ulceration” value is “significantly reduced the histological score”, the “histological score (Rachmilewitz) for flogosis” value was “significantly reduced the histological score” and the “histological score (Rachmilewitz) for ulceration” value is “significantly reduced the histological score”. Further, in data set [3] (setting [5]), the composite endoscopic score entry was “significantly inhibit chronic experimental colitis”, the “endoscopic score: colon thickness” value is recorded as “significantly inhibit chronic experimental colitis”, the “endoscopic score: mucosal surface granularity” value is reported as “significantly inhibit chronic experimental colitis” and the “endoscopic score: vascular pattern” value was “significantly inhibit chronic experimental colitis”. Also, the “endoscopic score: visible fibrin” value in data set [3] (setting [5]) is given as “significantly inhibit chronic experimental colitis”. Also, the colon length result in data set [3] (DFL23806 90 mg/kg, 5-ASA 60 mg/kg oral once a day, compared to DSS+vehicle) is “significant inhibitory effect”.

With `Cc1cc(F)c(-c2cccs2)cc1NS(=O)(=O)c1cccc(CCCCCCC(=O)O)c1` [DFL24102, 7-(3-{[4-fluoro-2-methyl-5-(thiophen-2-yl)phenyl]sulfamoyl}phenyl)heptanoic acid], in data set [1], the total exposure AUC(0-inf) is 302 ng·h/mL, the AUC(0-t) was found to be 278 ng·h/mL, the highest level (Cmax) was 113 ng/mL and the Tmax was found to be 1 h. Further, the half-life in data set [1] is 1.9 h.
